Test results taken from patent US11415579B2, “Assay for measuring a rate of reaction between a target and a ligand candidate” (Imperial College Innovations Ltd., priority 2016, dated 2022).

Key:
Cdk2(H71C) (C177A) = biological target: T1, Cdk2(H71C) (C177A) (Homo sapiens, UniProt P24941, C177A/H71C); assay: Kinetic thiol consumption assay with Cdk2 mutant H71C; type: binding; design: key to Rate enhancement, Cdk2 H71C: rate constant with Cdk2 ÷ rate constant with model thiol (fold); conditions: additional mutation C177A; for Rate constant with Cdk2 H71C: Protein: Cdk2, cysteine position H71C, in h^-1
T1 construct: poly-histidine; made in house; host or cells: E. coli
Method in brief: (§1)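 5 μM thiol, degassed phosphate pH 8, 2% v/v immobilized TCEP beads; 1 h RT; fluorescence ex 380/em 470 nm; normalized vs DMSO/thiol-only; first-order exponential decay fit → rate constant; Cdk2 k / model-thiol k = rate enhancement per acrylamide.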

Cdk2(R122C) (C177A) = biological target: T2, Cdk2(R122C) (C177A) (Homo sapiens, UniProt P24941, C177A/R122C); assay: Kinetic thiol consumption assay with Cdk2 mutant R122C; type: binding; design: key to Rate enhancement, Cdk2 R122C: rate constant with Cdk2 ÷ rate constant with model thiol (fold); conditions: additional mutation C177A; for Rate constant with Cdk2 R122C: Protein: Cdk2, cysteine position R122C, in h-1
T2 construct: poly-histidine; made in house; host or cells: E. coli
Method in brief: as §1

[1] = biological target: T3, human cyclin-dependent kinase 2 (Cdk2) (Homo sapiens, UniProt P24941); assay: Kinetic thiol consumption assay with wild type Cdk2 (C177); type: binding; design: key to Rate enhancement, Cdk2 WT: k(Cdk2) divided by k(model thiol); Rate constant with Cdk2 (k(Cdk2)): unit not given here; conditions: for Rate constant with Cdk2 (k(Cdk2)): 500 μM ligand, 5 μM thiol, phosphate buffer pH 8; for Rate enhancement, Cdk2 WT: no additional mutations; for Rate constant with Cdk2 WT: Protein: Cdk2, cysteine position WT, in h^-1; for k(Cdk2)/k(Cdk2_mut) rate enhancement: model thiol Cdk2[C177A, F80C, K278C]; for k(Cdk2)/k(GSH) rate enhancement: model thiol glutathione
T3 construct: poly-histidine; made in house; host or cells: E. coli
Method in brief: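 His-tagged human Cdk2 from E. coli (sole surface cysteine C177) or a model thiol, each 5 μM in degassed phosphate buffer pH 8 with immobilized TCEP, reacted with acrylamides at room temperature. Fluorescence (ex 380/em 470) normalized to DMSO/thiol control over time; first-order rate constants, Cdk2 rate divided by model-thiol rate.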

Cdk2(S181C) (C177A) = biological target: T4, Cdk2(S181C) (C177A) (Homo sapiens, UniProt P24941, C177A/S181C); assay: Kinetic thiol consumption assay with Cdk2 mutant S181C; type: binding; design: key to Rate enhancement, Cdk2 S181C: rate constant with Cdk2 ÷ rate constant with model thiol (fold); conditions: additional mutation C177A; for Rate constant with Cdk2 S181C: Protein: Cdk2, cysteine position S181C, in h^-1
T4 construct: poly-histidine; made in house; host or cells: E. coli
Method in brief: as §1

Cdk2(T182C) (C177A) = biological target: T5, Cdk2(T182C) (C177A) (Homo sapiens, UniProt P24941, C177A/T182C); assay: Kinetic thiol consumption assay with Cdk2 mutant T182C; type: binding; design: key to Rate enhancement, Cdk2 T182C: rate constant with Cdk2 ÷ rate constant with model thiol (fold); conditions: additional mutation C177A; for Rate constant with Cdk2 T182C: Protein: Cdk2, cysteine position T182C, in h^-1
T5 construct: poly-histidine; made in house; host or cells: E. coli
Method in brief: as §1

Cdk2(C177A, F80C) = biological target: T6, Cdk2(C177A, F80C) (Homo sapiens, UniProt P24941, C177A/F80C); assay: Kinetic thiol consumption assay with Cdk2 mutant F80C, incl. kobs versus concentration (Kd, k2); type: binding; design: key to Rate enhancement, Cdk2 F80C: Cdk2 rate constant divided by model-thiol rate constant; conditions: additional mutation C177A; for Rate constant with Cdk2 F80C: Protein: Cdk2, cysteine position F80C, in h^-1
T6 construct: poly-histidine; made in house; host or cells: E. coli
Method in brief: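 His-tagged Cdk2(C177A/F80C) from E. coli or model thiol, 5 μM in degassed phosphate buffer pH 8 with TCEP beads, reacted with acrylamide ligands; fluorescence (ex/em 380/470 nm) normalized to DMSO control and fitted to first-order decay for kobs. Kd and k2 obtained from hyperbolic fit of kobs versus ligand concentration.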

Cdk2(S276C) (C177A) = biological target: T7, Cdk2(S276C) (C177A) (Homo sapiens, UniProt P24941, C177A/S276C); assay: Kinetic thiol consumption assay with Cdk2 mutant S276C; type: binding; design: key to Rate enhancement, Cdk2 S276C: rate constant with Cdk2 ÷ rate constant with model thiol (fold); conditions: additional mutation C177A; for Rate constant with Cdk2 S276C: Protein: Cdk2, cysteine position S276C, in h^-1
T7 construct: poly-histidine; made in house; host or cells: E. coli
Method in brief: as §1

Cdk2[C177A, F80C, K278C] = biological target: T8, Cdk2[C177A, F80C, K278C] (Homo sapiens, UniProt P24941, C177A/F80C/K278C); assay: Kinetic thiol consumption assay with mutant Cdk2 as model thiol; type: binding; design: unit not given here; conditions: 500 μM ligand, 5 μM thiol, phosphate buffer pH 8
T8 construct: poly-histidine; made in house; host or cells: E. coli
Method in brief: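 Model thiol: His-tagged human Cdk2 C177A/F80C/K278C (two engineered surface cysteines), E. coli-expressed, 5 μM in degassed phosphate buffer pH 8 with immobilized TCEP beads (2% v/v). Fluorescence (ex/em 380/470 nm) followed over time at room temperature, normalized to DMSO/thiol control. First-order decay fit gives rate constants.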

[2] = Kinetic thiol consumption assay with model thiol glutathione; type: physicochemical; design: Rate constant with glutathione (k(GSH)): unit not given here; conditions: for Rate constant with glutathione (k(GSH)): 500 μM ligand, 5 μM thiol, phosphate buffer pH 8; for Rate constant with Glutathione: Protein: Glutathione, cysteine position NA, in h-1
Method in brief: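 GSH 5 μM, degassed phosphate buffer pH 8, TCEP beads 2% v/v; acrylamide added; RT, 1 h; fluorescence ex/em 380/470 nm; normalized to DMSO/thiol control; k from first-order exponential decay fit.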

Cdk2(N272C) (C177A) = biological target: T9, Cdk2(N272C) (C177A) (Homo sapiens, UniProt P24941, C177A/N272C); assay: Kinetic thiol consumption assay with Cdk2 mutant N272C; type: binding; design: key to Rate enhancement, Cdk2 N272: rate constant with Cdk2 ÷ rate constant with model thiol (fold); conditions: for Rate enhancement, Cdk2 N272: Cdk2 N272, additional mutation C177A; for Rate constant with Cdk2 N272C: Protein: Cdk2, cysteine position N272C, additional mutation C177A, in h^-1
T9 construct: poly-histidine; made in house; host or cells: E. coli
Method in brief: as §1

SMILES | Rate enhancement, Cdk2 H71C (Cdk2(H71C) (C177A)) | Rate enhancement, Cdk2 R122C (Cdk2(R122C) (C177A)) | Rate constant with Cdk2 R122C (Cdk2(R122C) (C177A)) | Rate constant with Cdk2 (k(Cdk2)) [1] | Rate enhancement, Cdk2 WT [1] | Rate constant with Cdk2 WT [1] | k(Cdk2)/k(Cdk2_mut) rate enhancement [1] | k(Cdk2)/k(GSH) rate enhancement [1] | Rate enhancement, Cdk2 S181C (Cdk2(S181C) (C177A)) | Rate constant with Cdk2 S181C (Cdk2(S181C) (C177A)) | Rate enhancement, Cdk2 T182C (Cdk2(T182C) (C177A)) | Rate constant with Cdk2 T182C (Cdk2(T182C) (C177A)) | Rate enhancement, Cdk2 F80C (Cdk2(C177A, F80C)) | Rate enhancement, Cdk2 S276C (Cdk2(S276C) (C177A)) | Rate constant with Cdk2 S276C (Cdk2(S276C) (C177A)) | Rate constant with Cdk2[C177A, F80C, K278C] (k(Cdk2_mut)) (Cdk2[C177A, F80C, K278C]) | Rate constant with glutathione (k(GSH)) [2] | Rate constant with Glutathione [2] | Rate enhancement, Cdk2 N272 (Cdk2(N272C) (C177A)) | Rate constant with Cdk2 N272C (Cdk2(N272C) (C177A)) | other results
C=CC(=O)N1CCCC1c1cnc2ccccc2c1 (centres unmarked) [EL-1064] | 0.8653 | 0.5786 | 0.006914 | 0.00589 | 0.4929 | 0.00589 | 0.7691 | 0.489 | 1.469 | 0.01756 | 1.7 | 0.02031 | 1.645 | 1.074 | 0.01284 | 0.00766 | 0.01205 | 0.01195 | 1.056 | 0.01262 | Rate constant with Cdk2 H71C (Cdk2(H71C) (C177A)): 0.01034; Rate constant with Cdk2 F80C (Cdk2(C177A, F80C)): 0.01966
C=CC(=O)NC1C[C@@H](C(=C)C)CC=C1C (some centres unmarked) [EL-1074] | 0.248 | 0.322 | 0.0033 | 0.003 | 0.5934 | 0.006082 | 0.8773 | 0.3421 | 0.214 | 0.002194 | 1.829 | 0.01875 | 0.4555 | 0.4274 | 0.004381 | 0.00342 | 0.00876 | 0.01025 | 0.6473 | 0.006635 | Rate constant with Cdk2 H71C (Cdk2(H71C) (C177A)): 0.002542; Rate constant with Cdk2 F80C (Cdk2(C177A, F80C)): 0.004669
C=CC(=O)NCCc1c(-c2ccccn2)[nH]c2ccccc12 [EL-1083] | 0 | 0.05484 | 0.0005988 | 0.00098 | 0.08945 | 0.0009768 | 0.3446 | 0.1583 | 0.1531 | 0.001672 | 0.9139 | 0.00998 | 0 | 0.5044 | 0.005508 | 0.00284 | 0.00618 | 0.01092 | 0.157 | 0.001714 | –
C=CC(=O)NCCc1c(-c2ccccn2)[nH]c2ccc(F)cc12 [EL-1084] | 0 | 0.229 | 0.0009787 | 0.00314 | 1.173 | 0.005012 | 0.5247 | 1.101 | 0.09078 | 0.0003879 | 1.828 | 0.007812 | 1.7587E−11 | 0.4117 | 0.001759 | 0.00599 | 0.00286 | 0.004273 | 0.608 | 0.002598 | Rate constant with Cdk2 F80C (Cdk2(C177A, F80C)): 7.515E−14
C=CC(=O)Nc1cccc(-c2cc3ccccc3[nH]2)c1 [EL-1098] | 0.2587 | 0.5598 | 0.006443 | 0.01063 | 0.9235 | 0.01063 | 0.3049 | 0.9268 | 0.4335 | 0.00499 | 2.526 | 0.02907 | 0.7203 | 1.017 | 0.0117 | 0.03487 | 0.01147 | 0.01151 | 0.8491 | 0.009773 | Rate constant with Cdk2 H71C (Cdk2(H71C) (C177A)): 0.002978; Rate constant with Cdk2 F80C (Cdk2(C177A, F80C)): 0.008291
